Experimental data reported in patent US9409952B2, “Peptide-compound cyclization method” (Chugai Seiyaku Kabushiki Kaisha, priority 2011, dated 2016).
Starred links: 1 amine or outer side, 2 acyl side, 3 side chain; linkers in the order of their positions; H or OH if unused. Positions of bridges follow the written chain, without caps; N, C: chain ends. Non-standard residues stand in square brackets, D forms with d. Residues, ends and D or L forms follow the SMILES beside them. *: point of attachment. NMeF = CN[C@@H](Cc1ccccc1)C(=O)O; NMeGABA = CN(CCCC(=O)[*:2])[*:1]; NMeI = CC[C@H](C)[C@H](NC)C(=O)O; NMeβAla = CN(CCC(=O)[*:2])[*:1]; NMeL = CN[C@@H](CC(C)C)C(=O)O; NMeV = CN[C@H](C(=O)O)C(C)C; NMeA = CN[C@@H](C)C(=O)O; Piperidide = C1CCN(*)CC1; dNMeA = CN[C@H](C)C(=O)O

Experiment: PAMPA (parallel artificial membrane permeability assay)
Assay type: in vitro ADME
Conditions: PAMPA; membrane permeation rate (Pe); 50 mM MOPSO buffer pH 6.5 with 5.0% glycocholic acid, 37° C., 18 hours; read-out: iPAMPA Pe
Description: 4 μL of a phospholipid-organic solvent solution composed of 10% (w/v) of egg lecithin, 0.5% (w/v) of cholesterol and dodecane (all purchased from Fluka) was added to a Millipore 96-well membrane filter (hydrophobic PVDF (polyvinylidene difluoride), pore size 0.45 microm) (purchased from Millipore Japan) to make an artificial phospholipid membrane.
A DMSO solution containing the compound at a concentration of 10 mM was added in a percentage of 0.5% (v/v) to a 50 mM MOPSO buffer, pH 6.5, containing 5.0% (w/v) of glycocholic acid, and 330 μL of the mixture was added to a 96-well plate made of Teflon (donor plate). The above artificial phospholipid membrane plate was attached onto the donor plate, and 280 μL of a solution obtained by adding DMSO in a percentage of 0.5% (v/v) to a 50 mM MOPSO buffer, pH 6.5, containing 5.0% (w/w) of glycocholic acid was added onto the artificial phospholipid membrane (acceptor plate). These plates were allowed to stand at 37° C. for 18 hours, after which the concentrations of the compound in the solutions in the donor plate and the acceptor plate were measured by LC/MS or LC/UV, and the membrane permeation rate of the compound (Pe) was calculated by the following formulas (1) and (2), where t is the testing time, A is the membrane filter area, VD is the amount of the donor solution, VA is the amount of the acceptor solution, CD,t is the concentration of the compound in the donor solution at the time t, and CA,t is the concentration of the compound in the acceptor solution at the time t.

| Structure (SMILES) | Papp at 18 hours, 50 µM |
| --- | --- |
| CC(C)C[C@@H]1NC(=O)[C@@H](C)N(C)C(=O)C[C@@H](C(=O)N(C)[C@@H](Cc2ccccc2)C(=O)N[C@@H](C)C(=O)N2CCCCC2)NC(=O)[C@H](Cc2ccccc2)N(C)C(=O)[C@H](CC(C)C)N(C)C(=O)[C@H](Cc2ccccc2)NC(=O)[C@H]([C@@H](C)O)NC(=O)[C@H](CC(C)C)N(C)C(=O)[C@H](CC(C)C)N(C)C1=O [DP-359] ([dNMeA]L[NMeL][NMeL]TF[NMeL][NMeF]D[NMeF]A-Piperidide; lactam N-9) | 43 ×10⁻⁶ cm/s |
| CC(C)C[C@H]1C(=O)N(C)[C@@H](Cc2ccccc2)C(=O)N[C@@H]([C@@H](C)O)C(=O)N[C@@H](C)C(=O)N(C)[C@@H](C)C(=O)N[C@H](C(=O)N(C)[C@@H](Cc2ccccc2)C(=O)N[C@@H](C)C(=O)N2CCCCC2)CC(=O)N(C)CCC(=O)N(C)[C@@H](Cc2ccccc2)C(=O)N(C)[C@@H](C(C)C)C(=O)N(C)[C@@H](C)C(=O)N[C@@H](C)C(=O)N1C [DP-360] ([NMeβAla][NMeF][NMeV][NMeA]A[NMeL][NMeF]TA[NMeA]D[NMeF]A-Piperidide; lactam N-11) | 7.3 ×10⁻⁶ cm/s |
| CC[C@H](C)[C@@H]1NC(=O)[C@H](CC(C)C)N(C)C(=O)[C@H](C)N(C)C(=O)[C@H](C)N(C)C(=O)CCN(C)C(=O)C[C@@H](C(=O)N(C)[C@@H](Cc2ccccc2)C(=O)N[C@@H](C)C(=O)N2CCCCC2)NC(=O)[C@H](Cc2ccccc2)N(C)C(=O)[C@H](C)N(C)C(=O)[C@H]([C@@H](C)O)NC(=O)[C@H](Cc2ccccc2)N(C)C(=O)[C@H](C)N(C)C1=O [DP-362] ([NMeβAla][NMeA][NMeA][NMeL]I[NMeA][NMeF]T[NMeA][NMeF]D[NMeF]A-Piperidide; lactam N-11) | 27 ×10⁻⁶ cm/s |
| CC[C@H](C)[C@@H]1NC(=O)[C@H](C)N(C)C(=O)[C@H](CC(C)C)N(C)C(=O)CCCN(C)C(=O)C[C@@H](C(=O)N(C)[C@@H](Cc2ccccc2)C(=O)N[C@@H](C)C(=O)N2CCCCC2)NC(=O)[C@H](CC(C)C)N(C)C(=O)[C@H](C)N(C)C(=O)[C@H]([C@@H](C)O)NC(=O)[C@H](Cc2ccccc2)N(C)C(=O)[C@H](Cc2ccccc2)N(C)C(=O)[C@H](CC(C)C)N(C)C1=O [DP-366] ([NMeGABA][NMeL][NMeA]I[NMeL][NMeF][NMeF]T[NMeA][NMeL]D[NMeF]A-Piperidide; lactam N-11) | 14 ×10⁻⁶ cm/s |
| CC(C)C[C@@H]1NC(=O)[C@H](CC(C)C)N(C)C(=O)CCN(C)C(=O)C[C@@H](C(=O)N(C)[C@@H](Cc2ccccc2)C(=O)N[C@@H](C)C(=O)N2CCCCC2)NC(=O)[C@H](CC(C)C)N(C)C(=O)[C@H](Cc2ccccc2)NC(=O)[C@H](Cc2ccccc2)N(C)C(=O)[C@H](C)NC(=O)[C@H]([C@@H](C)O)NC(=O)[C@H](CC(C)C)N(C)C1=O [DP-369] ([NMeβAla][NMeL]L[NMeL]TA[NMeF]F[NMeL]D[NMeF]A-Piperidide; lactam N-10) | 26 ×10⁻⁶ cm/s |
| CC[C@H](C)[C@@H]1NC(=O)[C@H](CC(C)C)N(C)C(=O)[C@H](Cc2ccccc2)N(C)C(=O)[C@H]([C@@H](C)O)NC(=O)[C@H](C)N(C)C(=O)CCCN(C)C(=O)C[C@@H](C(=O)N(C)[C@@H](Cc2ccccc2)C(=O)N[C@@H](C)C(=O)N2CCCCC2)NC(=O)[C@H](CC(C)C)N(C)C(=O)[C@H](Cc2ccccc2)N(C)C(=O)[C@H](CC(C)C)N(C)C1=O [DP-373] ([NMeGABA][NMeA]T[NMeF][NMeL]I[NMeL][NMeF][NMeL]D[NMeF]A-Piperidide; lactam N-10) | 9.2 ×10⁻⁶ cm/s |
| CC[C@H](C)[C@@H]1NC(=O)[C@H](C)N(C)C(=O)[C@H]([C@@H](C)O)NC(=O)[C@H](CC(C)C)N(C)C(=O)[C@H](Cc2ccccc2)NC(=O)[C@H](C(C)C)N(C)C(=O)[C@H](CC(C)C)N(C)C(=O)[C@H](C)N(C)C(=O)C[C@@H](C(=O)N(C)[C@@H](Cc2ccccc2)C(=O)N[C@@H](C)C(=O)N2CCCCC2)NC(=O)[C@H](CC(C)C)N(C)C1=O [DP-376] ([NMeA][NMeL][NMeV]F[NMeL]T[NMeA]I[NMeL]D[NMeF]A-Piperidide; lactam N-10) | 29 ×10⁻⁶ cm/s |
| CC(C)C[C@@H]1NC(=O)[C@H](CC(C)C)N(C)C(=O)[C@H](C)N(C)C(=O)C[C@@H](C(=O)N(C)[C@@H](Cc2ccccc2)C(=O)N[C@@H](C)C(=O)N2CCCCC2)NC(=O)[C@H]([C@@H](C)O)NC(=O)[C@H](CC(C)C)N(C)C(=O)[C@H](Cc2ccccc2)NC(=O)[C@H](Cc2ccccc2)N(C)C(=O)[C@H](CC(C)C)N(C)C1=O [DP-387] ([NMeA][NMeL]L[NMeL][NMeF]F[NMeL]TD[NMeF]A-Piperidide; lactam N-9) | 2.8 ×10⁻⁶ cm/s |
| CC(C)[C@@H]1NC(=O)[C@H](Cc2ccccc2)N(C)C(=O)[C@H](C)N(C)C(=O)[C@H]([C@@H](C)O)NC(=O)CNC(=O)[C@H](C)N(C)C(=O)[C@H](Cc2ccccc2)NC(=O)[C@H](C)N(C)C(=O)C[C@@H](C(=O)N(C)[C@@H](Cc2ccccc2)C(=O)N(C)[C@@H](Cc2ccccc2)C(=O)N[C@@H](C)C(=O)N2CCCCC2)NC(=O)[C@H](C(C)C)N(C)C1=O [DP-393] ([NMeA]F[NMeA]GT[NMeA][NMeF]V[NMeV]D[NMeF][NMeF]A-Piperidide; lactam N-10) | 18 ×10⁻⁶ cm/s |
| CC[C@H](C)[C@@H]1NC(=O)[C@H](CC(C)C)N(C)C(=O)[C@H](CC(C)C)N(C)C(=O)[C@H](C)N(C)C(=O)[C@H]([C@@H](C)O)NC(=O)[C@H](Cc2ccccc2)N(C)C(=O)[C@@H](C)N(C)C(=O)C[C@@H](C(=O)N(C)[C@@H](Cc2ccccc2)C(=O)N(C)[C@@H](Cc2ccccc2)C(=O)N[C@@H](C)C(=O)N2CCCCC2)NC(=O)[C@H](C(C)C)N(C)C1=O [DP-399] ([dNMeA][NMeF]T[NMeA][NMeL][NMeL]I[NMeV]D[NMeF][NMeF]A-Piperidide; lactam N-9) | 0.89 ×10⁻⁶ cm/s |
| CC[C@H](C)[C@@H]1NC(=O)[C@H](Cc2ccccc2)N(C)C(=O)[C@H](C)N(C)C(=O)[C@H](CC(C)C)N(C)C(=O)[C@H](Cc2ccccc2)N(C)C(=O)CCN(C)C(=O)C[C@@H](C(=O)N(C)[C@@H](Cc2ccccc2)C(=O)N(C)[C@@H](Cc2ccccc2)C(=O)N[C@@H](C)C(=O)N2CCCCC2)NC(=O)[C@H]([C@@H](C)O)NC(=O)[C@H](CC(C)C)N(C)C(=O)[C@H](CC(C)C)N(C)C1=O [DP-499] ([NMeβAla][NMeF][NMeL][NMeA][NMeF]I[NMeL][NMeL]TD[NMeF][NMeF]A-Piperidide; lactam N-10) | 0.31 ×10⁻⁶ cm/s |
| CC[C@H](C)[C@@H]1NC(=O)[C@H](C)N(C)C(=O)[C@H]([C@@H](C)O)NC(=O)[C@H](CC(C)C)N(C)C(=O)[C@H](Cc2ccccc2)N(C)C(=O)[C@H](C)N(C)C(=O)[C@@H](C(C)C)NC(=O)C[C@@H](C(=O)N(C)[C@@H](Cc2ccccc2)C(=O)N(C)[C@@H](Cc2ccccc2)C(=O)N[C@@H](C)C(=O)N2CCCCC2)NC(=O)[C@H](C(C)C)N(C)C(=O)[C@H](CC(C)C)N(C)C1=O [DP-510] ([dV][NMeA][NMeF][NMeL]T[NMeA]I[NMeL][NMeV]D[NMeF][NMeF]A-Piperidide; lactam N-10) | 2.2 ×10⁻⁶ cm/s |
| CC[C@H](C)[C@H](NC(=O)[C@H](C)N(C)C(=O)[C@@H](NC(=O)[C@H](Cc1ccccc1)N(C)C(=O)[C@H](CC(C)C)N(C)C(=O)[C@@H]1CC(=O)N[C@H](C)C(=O)N[C@@H](C(C)C)C(=O)N(C)[C@@H](Cc2ccccc2)C(=O)N(C)[C@@H](CC(C)C)C(=O)N(C)[C@@H](C)C(=O)N[C@@H]([C@@H](C)O)C(=O)N[C@@H](Cc2ccccc2)C(=O)N1)C(C)C)C(=O)N1CCCCC1 [DP-570] ([dA]V[NMeF][NMeL][NMeA]TFD[NMeL][NMeF]V[NMeA]I-Piperidide; lactam N-8) | 2.1 ×10⁻⁶ cm/s |
| CC(C)C[C@H]1C(=O)N(C)[C@@H](Cc2ccccc2)C(=O)N(C)[C@@H](CC(C)C)C(=O)N[C@H](C(=O)N(C)[C@@H](Cc2ccccc2)C(=O)N[C@@H](Cc2ccccc2)C(=O)N2CCCCC2)CC(=O)N[C@H](C(C)C)C(=O)N[C@@H](C)C(=O)N[C@@H]([C@@H](C)O)C(=O)N(C)[C@@H](C)C(=O)N[C@@H](Cc2ccccc2)C(=O)N1C [DP-577] ([dV]AT[NMeA]F[NMeL][NMeF][NMeL]D[NMeF]F-Piperidide; lactam N-9) | 0.94 ×10⁻⁶ cm/s |
| CC[C@H](C)[C@H](NC(=O)[C@H](C)N(C)C(=O)[C@@H]1CC(=O)N(C)[C@H](C)C(=O)N(C)[C@@H](C)C(=O)N(C)[C@@H](Cc2ccccc2)C(=O)N(C)[C@@H](CC(C)C)C(=O)N[C@@H]([C@@H](C)O)C(=O)N(C)[C@@H](C)C(=O)N(C)[C@@H](CC(C)C)C(=O)N[C@@H](CO)C(=O)N1)C(=O)N1CCC[C@H]1C(=O)N[C@H](C(=O)N[C@@H](C)C(=O)N1CCCCC1)C(C)C [DP-578] ([dNMeA][NMeA][NMeF][NMeL]T[NMeA][NMeL]SD[NMeA]IPVA-Piperidide; lactam N-9) | 3.4 ×10⁻⁶ cm/s |

Same assay, conditions: membrane permeation rate (Pe); 50 mM MOPSO buffer pH 6.5 with 5.0% glycocholic acid, 37° C., 18 hours

| Structure (SMILES) | iPAMPA Pe |
| --- | --- |
| CC[C@H](C)[C@H]1C(=O)N[C@@H](C(C)C)C(=O)N(C)[C@@H](Cc2ccccc2)C(=O)N[C@@H](CC(C)C)C(=O)N(C)[C@@H](Cc2ccccc2)C(=O)N[C@H](C(=O)N(C)[C@@H](Cc2ccccc2)C(=O)N[C@@H](C)C(=O)N[C@H](C(=O)N[C@@H](Cc2ccccc2)C(=O)N2CCCCC2)[C@@H](C)O)CC(=O)N[C@@H](C)C(=O)N[C@@H](CC(C)C)C(=O)N1C [DP-572] (AL[NMeI]V[NMeF]L[NMeF]D[NMeF]ATF-Piperidide; lactam N-8) | 1.0E−07 |
